“Also recorded” adds a separate entry of the source.
Columns and labels:
[1] = system: Survivin; experiment: Nuclear export of Survivin-GFP fusion transiently expressed in HeLa cells; format: cell-based; conditions: transient expression, 25µM
Method: The activity of compounds to inhibit the export of the oncologically relevant protein Survivin as well as of the HIV-1 Rev protein was analyzed.
Nuclear export of Survivin is crucial for its tumor promoting cytoprotective activity (Engels et al., 2007; Knauer et al., 2007a; Knauer et al., 2007b).

[2] = system: HIV-1 (strain NL4-3; CXCR-4 tropic); experiment: HIV-1 replication inhibition assay in infected Tzm-bl cells (RT activity in supernatant); format: cell-based; conditions: 25 or 50µM added 24h post infection, read 48h post infection
Method: The HIV-1 Rev protein transports unspliced and inclompletely spliced viral RNAs from the nucleus into the cytoplasm, crucial for viral replication and AIDS development (Pavlakis and Stauber, 1998; Stauber et al., 1995). […] 24h post infection, DMSO only (control) or compounds C3 or C5 (stock solution in DMSO) were added to a final concentration of 25 or 50µM. 24h later (= 48h post infection) the viral particles in the supernatant were quantified by measuring reverse transcriptase (RT) activity in the viral supernatant using the RT-Lenti Kit (Cavidi-Tech; Uppsala, Sweden) (see Fig. 6A).

[3] = system: FaDu; experiment: Cell viability (CellTiter-Glo) and cell death, FaDu; format: cell-based; conditions: for cell death induced by treatment: FaDu (head and neck cancer), 25µM; for viability compared to the control: FaDu, 100µM, 72h, CellTiter-Glo
Method: (§1) To test the anti-cancer activity of the compounds, several cancer cell lines, currently used as models for different epithelial cancers and leukemias, were treated with the indicated inhibitors. […] Every 24h, the cell culture medium was replaced by fresh compound-containing medium. 72h post treatment, cell were analyzed by adding 100µl CellTiter-Glo® assay reagent (Promega). Luminescence was measured with a LuminoskanAscent device (ThermoScientific). Cells treated with a corresponding amount of DMSO only were use as a control. The luminescence (equals cell viability) of said control was set to 100%.

[4] = system: A431; experiment: Cell viability (CellTiter-Glo) and cell death, A431; format: cell-based; conditions: for cell death induced by treatment: A431 (epidermoid carcinoma), 25µM; for viability compared to the control: A431, 100µM, 72h, CellTiter-Glo
Method: as §1

[5] = system: KASUMI-1; experiment: Cell death, KASUMI-1; format: cell-based; conditions: KASUMI-1 (acute myeloid leukemia, AML), 25µM
[6] = molecular target: human CRM1 (Crm1-HA) (Homo sapiens, UniProt O14980); experiment: In vitro pull-down of Crm1-HA with GST-SurvivinNES-GFP beads; format: binding; conditions: preincubation 1mM, 30min at 4°C
Method: The binding of LMB and of compounds C3 and C5 to CRM1 was examined by in vitro pull-down assays as described by Stauber et al., 2006. Briefly, in vitro coupled transcription/translation was performed using the TNT reticulocyte lysate system (Promega, Madison, WI, USA) supplemented with methionine (Promega, Madison, WI, USA) and plasmid pCrm1_HA (1µg), encoding a hemagglutinin epitope-tagged version of human CRM1 (Crm1-HA), as the template. Equal amounts of the Crm1-HA TNT reaction were preincubated with either DMSO (negative control; 0.1%), LMB (400nM, final concentration), C3 (1 mM; final concentration) or C5 (1mM; final concentration) in binding-buffer containing 5mM MgCl2 (AppliChem, Darmstadt, Germany), 2mM GTP (PEQLAB, Erlangen, Germany), 50mM Hepes pH 7.9 (AppliChem, Darmstadt, Germany), 200mM KCI (AppliChem, Darmstadt, Germany), 0.4% Tween 20 (AppliChem, Darmstadt, Germany), supplemented with complete protease inhibitor cocktail (Roche, Mannheim, Germany) for 30min at 4°C. Subsequently, GST-Sepharose beads loaded with 25µg recombinant GST-SurvivinNES-GFP and 5µg GST-RanQ96L were added to each drug-treated TNT reaction. Recombinant GST-SurvivinNES-GFP and GST-RanQ96L were purified from bacteria as described by Stauber et al., 2006. Pull-down was performed for 4h at 4°C in a rotating wheel. Samples were then centrifuged (3500rpm, 1min, 4°C) to recover the GST-SurvivinNES-GFP beads with bound Crm1-HA. Beads were washed three times with binding-buffer (500µl each washing step, 3500rpm, 1min, 4°C). Finally, bound proteins were eluted by adding 25µl 2xSDS-sample buffer (250mM Tris-HCl pH 6.8; 2% w/v SDS, 20% glycerol, 2% β-mercaptoethanol, 0.002% w/v bromophenol blue) and incubating at 95°C for 2min. Samples were separated by SDS-gelelectrophoresis and analyzed by immunoblot analysis as described by Stauber et al., 2006. Crm1-HA was detected with HA specific antibodies (MMS-101R, Covance, New Jersey, USA). GFP served as the loading control and was visualized with GFP specific antibodies (sc-8334, Santa Cruz Biotechnology, Heidelberg, Germany).

[7] = system: HeLa cells; experiment: Cell viability (CellTiter-Glo) and cell death, HeLa; format: cell-based; conditions: for cell death induced by treatment: HeLa (cervix carcinoma), 25µM; for viability compared to the control: HeLa, 100µM, 72h, CellTiter-Glo; for IC50: Homo sapiens, compound concentration reducing HeLa cell viability by 50%
Method: as §1
IC50 value corresponds to compound concentration reducing HeLa cell viability by 50%. Topt is the time point post treatment when maximum nuclear export inhibition was observed by fluorescence microscopy. Table 4: Functional characteristics of nuclear export inhibitors
It was assessed whether the export inhibitors also affect the viability of non-malignant human cells, precluding their potential (pre)clinical use. 10^3 freshly isolated non-malignant primary human fibroblasts (HTF-8) or HeLa cells/well were seeded and 24h later treated with the indicated compounds (final concentration: 100µM). Every 24h cell culture medium was replaced by freshly prepared compound-containing medium. 72h post treatment the cells were analyzed by adding 100µl CellTiter-Glo® assay reagent, and luminescence measured with a LuminoskanAscent (ThermoScientific). Cells treated with DMSO only were used as a control. The fluorescence measured (equals cell viability) with said control was set to 100%.

[8] = system: HIV-1 Rev protein; experiment: Nuclear export of HIV-1 Rev-GFP in actinomycin D treated HeLa cells; format: cell-based; conditions: 25µM
Text: The HIV-1 Rev protein transports unspliced and incompletely spliced viral RNAs from the nucleus into the cytoplasm (Stauber et al., 1995). As such, Rev's export function is crucial for viral replication and AIDS development (Pavlakis and Stauber, 1998; Stauber et al., 1995).

[9] = system: SUP-B15; experiment: Cell death, SUP-B15; format: cell-based; conditions: SUP-B15 (B cell precursor ALL), 25µM
[10] = In vivo toxicity in nude mice; conditions: male NMRI nu/nu mice, i.p. three times every second day, 200µl 1mM
Method: To investigate whether the nuclear export inhibitors cause toxic effects in vivo, six-week-old male NMRI nu/nu mice were injected three times intraperitoneally (i.p.) every second day with 200µl 1mM C3 or C5 (5 mice each), or with 200µl DMSO only (control, 2 mice).

[11] = system: HeLa cells; experiment: Apoptosis by immunoblot detection of cleaved Caspase 3 and PARP cleavage in HeLa lysates; format: cell-based; conditions: 25µM, lysates 72h post treatment
Text: Lysates of cells treated DMSO only were used as a control.

[12] = system: K562; experiment: AlamarBlue viability assay, K562, alone and combined with imatinib; format: cell-based, human; conditions: K562, 25µM, 72h, single agent
Method: The BCR-ABL^+ human chronic myeloid leukemia (CML) cell line K562 was used to investigate whether combining export inhibitors with chemotherapeutic drugs currently used in the clinics enhances drug-induced cancer cell death.
72h post treatment, cells were analyzed by adding 10µl of AlamarBlue® (Invitrogen). Fluorescence (538/600nm) was measured with a LuminoskanAscent (ThermoScientific). Cells treated with DMSO only were used as a control. The fluorescence measured (equals cell viability) with said control was set to 100%.

human CRM1 (Crm1-HA), sequence (O14980 whole entry): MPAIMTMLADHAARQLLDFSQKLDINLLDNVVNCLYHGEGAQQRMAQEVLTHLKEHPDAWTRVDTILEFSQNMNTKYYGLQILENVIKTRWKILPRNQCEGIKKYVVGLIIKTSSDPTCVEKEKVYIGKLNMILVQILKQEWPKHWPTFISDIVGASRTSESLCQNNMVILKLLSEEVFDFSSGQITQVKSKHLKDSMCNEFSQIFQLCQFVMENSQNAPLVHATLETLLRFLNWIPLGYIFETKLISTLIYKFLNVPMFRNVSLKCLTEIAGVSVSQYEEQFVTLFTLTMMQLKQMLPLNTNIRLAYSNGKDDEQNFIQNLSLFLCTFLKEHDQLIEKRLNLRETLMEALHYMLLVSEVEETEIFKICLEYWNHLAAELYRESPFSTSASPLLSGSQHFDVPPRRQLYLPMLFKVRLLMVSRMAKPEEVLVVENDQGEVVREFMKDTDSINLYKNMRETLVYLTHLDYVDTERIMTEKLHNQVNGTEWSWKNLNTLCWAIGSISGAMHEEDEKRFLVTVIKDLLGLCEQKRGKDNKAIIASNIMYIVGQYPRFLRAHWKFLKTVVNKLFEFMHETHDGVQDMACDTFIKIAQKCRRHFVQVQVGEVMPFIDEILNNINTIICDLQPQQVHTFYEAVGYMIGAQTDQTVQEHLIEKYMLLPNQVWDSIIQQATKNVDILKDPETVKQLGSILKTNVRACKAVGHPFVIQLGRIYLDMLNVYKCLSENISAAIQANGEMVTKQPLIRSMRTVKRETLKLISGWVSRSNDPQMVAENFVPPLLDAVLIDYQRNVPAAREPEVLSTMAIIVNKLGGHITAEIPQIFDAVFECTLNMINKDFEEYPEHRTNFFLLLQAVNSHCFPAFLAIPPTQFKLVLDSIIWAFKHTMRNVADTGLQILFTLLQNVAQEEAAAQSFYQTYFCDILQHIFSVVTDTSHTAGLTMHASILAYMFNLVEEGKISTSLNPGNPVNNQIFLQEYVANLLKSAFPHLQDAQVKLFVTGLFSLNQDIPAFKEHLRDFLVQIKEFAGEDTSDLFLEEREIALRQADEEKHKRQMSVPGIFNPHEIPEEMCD

SMILES | Localization of Survivin-GFP fusion (nuclear export of Survivin) [1] | RT-activity in the viral supernatant compared to the control [2] | cell death induced by treatment [3] | viability compared to the control [3] | cell death induced by treatment [4] | viability compared to the control [4] | cell death induced by treatment [5] | interaction of Crm1-HA with the export substrate GST-SurvivinNES-GFP [6] | cell death induced by treatment [7] | viability compared to the control [7] | IC50 [7] [µM] | Localization of HIV-1 Rev-GFP (nuclear export of HIV-1 Rev protein) [8] | cell death induced by treatment [9] | other signs of in vivo toxicity [10] | weight loss compared to the DMSO control [10] | drug-induced apoptosis (cleaved Caspase 3 and PARP cleavage) [11] | cancer cell death (AlamarBlue viability) [12]
NC(=O)c1c(NC(NC(=O)c2ccccc2F)(C(F)(F)F)C(F)(F)F)sc2c1CCCC2 [Compound C3, 2-[[1,1,1,3,3,3-hexafluoro-2-[(2-fluorobenzoyl)amino]propan-2-yl]amino]-4,5,6,7-tetrahydro-1-benzothiophene-3-carboxamide] | inhibited; also recorded: accumulated in the nucleus | significantly reduced the RT-activity | cell death | significantly reduced viability | cell death | significantly reduced viability | cell death | did not affected the CRM1 binding | cell death | significantly reduced viability; also recorded: significantly affect the viability | 38 | inhibited; also recorded: restored the nuclear accumulation | cell death | no significant weight loss (see Figure 5) or other signs of in vivo toxicity were observed | no significant weight loss | drug-induced apoptosis was shown | caused cancer cell death
O=C(NC1CS(=O)(=O)CC1Cl)c1cccc(C(F)(F)F)c1 (stereo not shown) [Compound C5, N-(4-chloro-1,1-dioxothiolan-3-yl)-3-(trifluoromethyl)benzamide] | inhibited; also recorded: accumulated in the nucleus | significantly reduced the RT-activity | cell death | significantly reduced viability | cell death | significantly reduced viability | cell death | did not affected the CRM1 binding | cell death | significantly reduced viability; also recorded: significantly affect the viability | 17 | inhibited; also recorded: restored the nuclear accumulation | cell death | no significant weight loss (see Figure 5) or other signs of in vivo toxicity were observed | no significant weight loss | drug-induced apoptosis was shown | caused cancer cell death
